Values joined by “and” are separate entries in the source; they are usually repeats but may differ in a detail not shown here. Equal entries are not always repeated.
Tested on: DYT-TOR1A MEF EVs
Experiment: Quantitative LC-MS/MS proteomics of EVs from drug-treated DYT-TOR1A MEF cultures (ritonavir, salubrinal)
Format: cell-based, mouse
Conditions: 24 h

## CC(C)c1nc(CN(C)C(=O)N[C@H](C(=O)N[C@@H](Cc2ccccc2)C[C@H](O)[C@H](Cc2ccccc2)NC(=O)OCc2cncs2)C(C)C)cs1 [ritonavir]
20 μM ritonavir, p≤0.05
  DYT-TOR1A genotype-disrupted EV proteins (n=363) with significant changes in abundance following ritonavir treatment: > 60% and 63%
20 μM
  DYT-TOR1A genotype-dependent protein disruptions changed by ritonavir in the corrective direction: 95%
20 μM, independent of p-value, of 363 proteins
  putative DYT biomarkers with ritonavir effects on protein abundance in the corrective direction: 344/363
20 μM, uncorrected p<0.05, 1974 proteins
  DYT EV proteome significantly modified by ritonavir: 29%
DYT1+RTV/DYT1, 20 μM
  Acaa1a (ACAA1) EV abundance Log2_FC: 0.8675
  Ano6 (ANO6) EV abundance Log2_FC: 0.08584
  Ap1b1 (AP1B1) EV abundance Log2_FC: 1.328
  Arl8b (ARL8B) EV abundance Log2_FC: 0.4007
  Bzw2 (BZW2) EV abundance Log2_FC: 0.8082
  Cryab (CRYAB) EV abundance Log2_FC: 0.42
  DIst (DLST) EV abundance Log2_FC: −0.4459
  Ehd4 (EHD4) EV abundance Log2_FC: 0.07182
  Flna (FLNA) EV abundance Log2_FC: 0.3721
  Fscn1 (FSCN1) EV abundance Log2_FC: 0.402
  Gart (GART) EV abundance Log2_FC: 0.677
  Hist1h1b (H1-5) EV abundance Log2_FC: 0.9834
  Hnrnpc (HNRNPC) EV abundance Log2_FC: −0.1273
  Ipo9 (IPO9) EV abundance Log2_FC: 1.122
  Jam3 (JAM3) EV abundance Log2_FC: −1.301
  Lipg (LIPG) EV abundance Log2_FC: 1.299
  Lrrc59 (LRRC59) EV abundance Log2_FC: 0.1624
  Mapk3 (MAPK3) EV abundance Log2_FC: 1.986
  Mars (MARS1) EV abundance Log2_FC: 0.5148
  Mrc2 (MRC2) EV abundance Log2_FC: −0.09834
  Myh9 (MYH9) EV abundance Log2_FC: −0.00905
  Ndnf (NDNF) EV abundance Log2_FC: 0.4697
  Pcmt1 (PCMT1) EV abundance Log2_FC: 2.547
  Pi4ka (PI4KA) EV abundance Log2_FC: −0.3588
  Pitpnb (PITPNB) EV abundance Log2_FC: 0.7296
  Prpsap2 (PRPSAP2) EV abundance Log2_FC: −0.08407
  Psmc5 (PSMC5) EV abundance Log2_FC: 0.4559
  Psmd12 (PSMD12) EV abundance Log2_FC: 1.09
  Psme4 (PSME4) EV abundance Log2_FC: 1.371
  Ptma (PTMA) EV abundance Log2_FC: −0.8532
  Rap2b (RAP2B) EV abundance Log2_FC: 0.3342
  Rbm3 (RBM3) EV abundance Log2_FC: −0.1048
  Rhoa (RHOA) EV abundance Log2_FC: 0.1985
  Rpl10 (RPL10) EV abundance Log2_FC: 0.5214
  Rpl13a (RPL13A) EV abundance Log2_FC: 0.6732
  Rps13 (RPS13) EV abundance Log2_FC: 0.02007
  Sec31a (SEC31A) EV abundance Log2_FC: 0.8357
  Slc2a1 (SLC2A1) EV abundance Log2_FC: −0.03153
  Stom (STOM) EV abundance Log2_FC: 0.1986
  Tardbp (TARDBP) EV abundance Log2_FC: 0.2272
  Tgfb2 (TGFB2) EV abundance Log2_FC: −0.7218
  Tln1 (TLN1) EV abundance Log2_FC: 0.1451
  Tln2 (TLN2) EV abundance Log2_FC: 0.6441
  Tubb1 (TUBB1) EV abundance Log2_FC: −0.05972
  Usp7 (USP7) EV abundance Log2_FC: 1.189
  Wdr26 (WDR26) EV abundance Log2_FC: 1.2
  Zyx (ZYX) EV abundance Log2_FC: −0.3666
DYT + RTV/DYT, 20 μM
  Acaa1a (ACAA1) EV abundance Cohen's d: 1.381
  Ano6 (ANO6) EV abundance Cohen's d: 0.2001
  Ap1b1 (AP1B1) EV abundance Cohen's d: 3.258
  Arl8b (ARL8B) EV abundance Cohen's d: 0.9032
  Bzw2 (BZW2) EV abundance Cohen's d: 1.685
  Cryab (CRYAB) EV abundance Cohen's d: 0.7088
  DIst (DLST) EV abundance Cohen's d: −1.437
  Ehd4 (EHD4) EV abundance Cohen's d: 0.2557
  Flna (FLNA) EV abundance Cohen's d: 1.357
  Fscn1 (FSCN1) EV abundance Cohen's d: 2.995
  Gart (GART) EV abundance Cohen's d: 2.137
  Hist1h1b (H1-5) EV abundance Cohen's d: 1.182
  Hnrnpc (HNRNPC) EV abundance Cohen's d: −0.2031
  Ipo9 (IPO9) EV abundance Cohen's d: 4.135
  Jam3 (JAM3) EV abundance Cohen's d: −2.624
  Lipg (LIPG) EV abundance Cohen's d: 2.834
  Lrrc59 (LRRC59) EV abundance Cohen's d: 0.8879
  Mapk3 (MAPK3) EV abundance Cohen's d: 2.384
  Mars (MARS1) EV abundance Cohen's d: 2.211
  Mrc2 (MRC2) EV abundance Cohen's d: −0.4039
  Myh9 (MYH9) EV abundance Cohen's d: −0.03876
  Ndnf (NDNF) EV abundance Cohen's d: 0.353
  Pcmt1 (PCMT1) EV abundance Cohen's d: 5.975
  Pi4ka (PI4KA) EV abundance Cohen's d: −0.6453
  Pitpnb (PITPNB) EV abundance Cohen's d: 2.824
  Prpsap2 (PRPSAP2) EV abundance Cohen's d: −0.1421
  Psmc5 (PSMC5) EV abundance Cohen's d: 2.883
  Psmd12 (PSMD12) EV abundance Cohen's d: 10.6
  Psme4 (PSME4) EV abundance Cohen's d: 3.22
  Ptma (PTMA) EV abundance Cohen's d: −2.366
  Rap2b (RAP2B) EV abundance Cohen's d: 0.7129
  Rbm3 (RBM3) EV abundance Cohen's d: −0.4328
  Rhoa (RHOA) EV abundance Cohen's d: 0.3039
  Rpl10 (RPL10) EV abundance Cohen's d: 0.7944
  Rpl13a (RPL13A) EV abundance Cohen's d: 0.9222
  Rps13 (RPS13) EV abundance Cohen's d: 0.06202
  Sec31a (SEC31A) EV abundance Cohen's d: 4.402
  Slc2a1 (SLC2A1) EV abundance Cohen's d: −0.04516
  Stom (STOM) EV abundance Cohen's d: 0.4181
  Tardbp (TARDBP) EV abundance Cohen's d: 0.6116
  Tgfb2 (TGFB2) EV abundance Cohen's d: −1.388
  Tln1 (TLN1) EV abundance Cohen's d: 1.026
  Tln2 (TLN2) EV abundance Cohen's d: 1.031
  Tubb1 (TUBB1) EV abundance Cohen's d: −0.1131
  Usp7 (USP7) EV abundance Cohen's d: 7.143
  Wdr26 (WDR26) EV abundance Cohen's d: 3.714
  Zyx (ZYX) EV abundance Cohen's d: −0.7038
DYT-TOR1A MEF EVs, 20 μM each
  Pearson r between ritonavir and salubrinal effects on putative DYT-TOR1A biomarker proteins: 0.47

From US20260266848A1, “COMPOSITIONS AND METHODS FOR DIAGNOSING AND TREATING DYSTONIA” (Duke University, priority 2023, published 2026)
